Assay results taken from PubChem BioAssay (NCI).
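Tested at 5 concentrations; 48 h exposure; 96-well plates; endpoints linearly interpolated, else capped at highest concentration. Definition used: TGI = concentration required for complete inhibition of growth.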

Columns and labels:
Assay in all cases: DTP human tumour cell line panel, 48 h
[1] = tested on: SNB-75 CNS
[2] = tested on: SK-MEL-5 melanoma
[3] = tested on: TK-10 renal
[4] = tested on: NCI/ADR-RES ovarian
[5] = tested on: SR leukemia
[6] = tested on: SK-MEL-2 melanoma
[7] = tested on: OVCAR-4 ovarian
[8] = tested on: UACC-257 melanoma
[9] = tested on: MDA-MB-231 breast
[10] = tested on: NCI-H522 lung
[11] = tested on: NCI-H23 lung
[12] = tested on: BT-549 breast
[13] = tested on: SF-539 CNS
[14] = tested on: HL-60(TB) leukemia
[15] = tested on: DU-145 prostate
[16] = tested on: MDA-MB-435
[17] = tested on: IGROV1 ovarian
[18] = tested on: NCI-H226 lung
[19] = tested on: SF-295 CNS
[20] = tested on: SNB-19 CNS
[21] = tested on: MCF7 breast
[22] = tested on: OVCAR-3 ovarian
[23] = tested on: UO-31 renal
[24] = tested on: A549 NSCLC
[25] = tested on: COLO 205 colon
[26] = tested on: SK-MEL-28 melanoma
[27] = tested on: HCT-15 colon
[28] = tested on: UACC-62 melanoma
[29] = tested on: HS 578T breast
[30] = tested on: ACHN renal
[31] = tested on: SF-268 CNS
[32] = tested on: OVCAR-8 ovarian
[33] = tested on: M14 melanoma
[34] = tested on: KM12 colon
[35] = tested on: U251 CNS
[36] = tested on: NCI-H460 lung
[37] = tested on: CAKI-1 renal
[38] = tested on: MOLT-4 leukemia
[39] = tested on: PC-3 prostate
[40] = tested on: MDA-N
[41] = tested on: SN12C renal
[42] = tested on: EKVX NSCLC
[43] = tested on: K-562 leukemia
[44] = tested on: 786-0 renal
[45] = tested on: SW-620 colon
[46] = tested on: LOX IMVI melanoma
[47] = tested on: RXF 393 renal
[48] = tested on: HT29 colon
[49] = tested on: HOP-92 NSCLC
[50] = tested on: HOP-62 NSCLC
[51] = tested on: OVCAR-5 ovarian
[52] = tested on: SK-OV-3 ovarian
[53] = tested on: CCRF-CEM leukemia
[54] = tested on: HCT-116 colon
[55] = tested on: HCC-2998 colon
[56] = tested on: MALME-3M melanoma
[57] = tested on: RPMI-8226 leukemia
[58] = tested on: T-47D breast
[59] = tested on: SNB-78 CNS
[60] = tested on: M19-MEL melanoma
[61] = tested on: LXFL 529 NSCLC
[62] = tested on: A498 renal
[63] = tested on: KM20L2 colon
[64] = tested on: DMS 114 small cell lung
[65] = tested on: DMS 273 small cell lung

CC(=O)Nc1ccc(CNc2cc(=O)[nH]c(=O)[nH]2)cc1
TGI [1]: > 100 µM
TGI [2]: > 100 µM
TGI [3]: > 100 µM
TGI [4]: > 100 µM
TGI [5]: > 100 µM
TGI [6]: > 100 µM
TGI [7]: > 100 µM
TGI [8]: > 100 µM
TGI [9]: > 100 µM
TGI [10]: > 100 µM
TGI [11]: > 100 µM
TGI [12]: > 100 µM
TGI [13]: > 100 µM
TGI [14]: > 100 µM
TGI [15]: > 100 µM
TGI [16]: > 100 µM
TGI [17]: > 100 µM
TGI [18]: > 100 µM
TGI [19]: > 100 µM
TGI [20]: > 100 µM
TGI [21]: > 100 µM
TGI [22]: > 100 µM
TGI [23]: > 100 µM
TGI [24]: > 100 µM
TGI [25]: > 100 µM
TGI [26]: > 100 µM
TGI [27]: > 100 µM
TGI [28]: > 100 µM
TGI [29]: > 100 µM
TGI [30]: > 100 µM
TGI [31]: > 100 µM
TGI [32]: > 100 µM
TGI [33]: > 100 µM
TGI [34]: > 100 µM
TGI [35]: > 100 µM
TGI [36]: > 100 µM
TGI [37]: > 100 µM
TGI [38]: > 100 µM
TGI [39]: > 100 µM
TGI [40]: > 100 µM
TGI [41]: > 100 µM
TGI [42]: > 100 µM
TGI [43]: > 100 µM
TGI [44]: > 100 µM
TGI [45]: > 100 µM
TGI [46]: > 100 µM
TGI [47]: > 100 µM
TGI [48]: > 100 µM
TGI [49]: > 100 µM
TGI [50]: > 100 µM
TGI [51]: > 100 µM
TGI [52]: > 100 µM
TGI [53]: > 100 µM
TGI [54]: > 100 µM
TGI [55]: > 100 µM
TGI [56]: > 100 µM
TGI [57]: > 100 µM
TGI [58]: > 100 µM

CCCCCCCCCCCC(=O)OCC1OC(n2cc(F)c(=O)[nH]c2=O)C(N)C(OC(=O)CCCCCCCCCCC)C1O (configuration not stated)
TGI [1]: > 100 µM
TGI [2]: 30.5 µM
TGI [3]: > 100 µM
TGI [5]: > 100 µM
TGI [6]: > 100 µM
TGI [7]: > 100 µM
TGI [59]: > 100 µM
TGI [8]: > 100 µM
TGI [60]: > 100 µM
TGI [10]: > 100 µM
TGI [11]: > 100 µM
TGI [13]: > 100 µM
TGI [14]: > 100 µM
TGI [19]: > 100 µM
TGI [20]: > 100 µM
TGI [22]: > 100 µM
TGI [23]: > 100 µM
TGI [24]: > 100 µM
TGI [25]: > 100 µM
TGI [61]: > 100 µM
TGI [26]: > 100 µM
TGI [27]: > 100 µM
TGI [28]: > 100 µM
TGI [62]: > 100 µM
TGI [30]: > 100 µM
TGI [31]: > 100 µM
TGI [32]: > 100 µM
TGI [33]: > 100 µM
TGI [34]: > 100 µM
TGI [35]: > 100 µM
TGI [36]: > 100 µM
TGI [37]: > 100 µM
TGI [38]: > 100 µM
TGI [41]: > 100 µM
TGI [42]: > 100 µM
TGI [43]: > 100 µM
TGI [44]: > 100 µM
TGI [45]: > 100 µM
TGI [46]: > 100 µM
TGI [63]: > 100 µM
TGI [47]: > 100 µM
TGI [48]: > 100 µM
TGI [49]: 98.8 µM
TGI [50]: > 100 µM
TGI [64]: > 100 µM
TGI [52]: > 100 µM
TGI [53]: > 100 µM
TGI [54]: > 100 µM
TGI [65]: > 100 µM
TGI [55]: > 100 µM
TGI [56]: > 100 µM
TGI [57]: > 100 µM

COc1ccc2c3c1OC1C(=O)C=CC4(O)C(C2)NCC[C@@]314 (some centres not stated)
TGI [1]: 4.32 µM
TGI [2]: 16.4 µM
TGI [3]: 4.99 µM
TGI [4]: 20.3 µM
TGI [5]: 35.8 µM
TGI [6]: 6.65 µM
TGI [7]: 12.9 µM
TGI [8]: 5.3 µM
TGI [9]: 9.01 µM
TGI [10]: 1.99 µM
TGI [11]: 5.64 µM
TGI [12]: 6.32 µM
TGI [13]: 4.02 µM
TGI [14]: 4.4 µM
TGI [15]: 13.1 µM
TGI [16]: 5.79 µM
TGI [17]: 15.1 µM
TGI [18]: 25.7 µM
TGI [19]: 14.9 µM
TGI [20]: 19.1 µM
TGI [21]: 9.17 µM
TGI [22]: 3.99 µM
TGI [23]: 8.53 µM
TGI [24]: 18.2 µM
TGI [25]: 3.02 µM
TGI [26]: 22.7 µM
TGI [27]: 11.3 µM
TGI [28]: 12.7 µM
TGI [29]: 6.39 µM
TGI [62]: 9.39 µM
TGI [30]: 12.6 µM
TGI [31]: 7.55 µM
TGI [32]: 6.36 µM
TGI [33]: 6.61 µM
TGI [34]: 8.59 µM
TGI [35]: 7.15 µM
TGI [36]: 13.2 µM
TGI [37]: 8.49 µM
TGI [38]: 9.13 µM
TGI [39]: 12.2 µM
TGI [40]: 4.91 µM
TGI [41]: 4.42 µM
TGI [42]: 7.95 µM
TGI [43]: > 80.8 µM
TGI [44]: 5.02 µM
TGI [45]: 5.81 µM
TGI [46]: 5.15 µM
TGI [47]: 3.74 µM
TGI [48]: 11.7 µM
TGI [49]: 20.5 µM
TGI [50]: 9.87 µM
TGI [51]: 8.84 µM
TGI [52]: 11.2 µM
TGI [53]: 2.76 µM
TGI [54]: 6.32 µM
TGI [55]: 6.1 µM
TGI [56]: 2.81 µM
TGI [57]: 13.2 µM
TGI [58]: 5.69 µM

CC(C)C(C/C=C1/CC(CO)(COC(=O)CC(C(C)C)C(C)C)OC1=O)C(C)C (configuration not stated)
TGI [1]: 18.8 µM
TGI [2]: 22.3 µM
TGI [3]: 16.1 µM
TGI [4]: 31.6 µM
TGI [5]: > 50.3 µM
TGI [6]: 30.1 µM
TGI [7]: 31.8 µM
TGI [8]: 30.3 µM
TGI [9]: 18.5 µM
TGI [10]: 26.5 µM
TGI [11]: 29.9 µM
TGI [12]: 28.7 µM
TGI [13]: 23.8 µM
TGI [14]: 11.7 µM
TGI [15]: 26.3 µM
TGI [16]: 16.9 µM
TGI [17]: 31.1 µM
TGI [18]: 22.6 µM
TGI [19]: 16.5 µM
TGI [20]: 25.8 µM
TGI [21]: 28.4 µM
TGI [22]: 26.7 µM
TGI [23]: 19.9 µM
TGI [24]: 14.6 µM
TGI [25]: 3.33 µM
TGI [26]: 27.7 µM
TGI [27]: 30.3 µM
TGI [28]: 30.1 µM
TGI [29]: 2.29 µM
TGI [62]: 11 µM
TGI [30]: 18.2 µM
TGI [31]: 23.1 µM
TGI [32]: 29.7 µM
TGI [33]: 26.8 µM
TGI [34]: 21.6 µM
TGI [35]: 25.3 µM
TGI [36]: 20 µM
TGI [37]: 16.5 µM
TGI [38]: 32.7 µM
TGI [39]: 20.2 µM
TGI [40]: 29.6 µM
TGI [41]: 31.9 µM
TGI [42]: 19.4 µM
TGI [43]: > 36.3 µM
TGI [44]: 23.3 µM
TGI [45]: 18.1 µM
TGI [46]: 20.8 µM
TGI [47]: 26 µM
TGI [48]: 30.5 µM
TGI [49]: 18.7 µM
TGI [50]: 18.3 µM
TGI [51]: 22.1 µM
TGI [52]: 30.5 µM
TGI [53]: 29.9 µM
TGI [54]: 35.1 µM
TGI [55]: 13.3 µM
TGI [56]: 23.1 µM
TGI [58]: 22.9 µM
